What is called TD50 is the dose at which the toxic effect under study appears in half of the subjects.

Structures are written as SMILES. The source made the active and inactive calls. No rule for the calls is given here.

Four compounds from PubChem BioAssay AID1745844 (Carcinogenic Potency Database (CPDB), 2022) can be followed below.

The data set deals with rodent lifetime carcinogenesis bioassay, tumor incidence TD50. Nature of the data set: chronic cancer bioassays in animals – CPDB, compiled studies (AID 1745844).

Take `[Cl][Sn][Cl]`: the TD50 reads like this: (mouse, strain B6C3F1, females, in feed, site: all sites, lesion: lymphoma, histiocytic type, dosed 105 weeks, study length 105 weeks) 2550 mg/kg/day; (mouse, strain B6C3F1, females, in feed, site: any site (literature study), lesion: several types, types named in the paper, dosed 105 weeks, study length 105 weeks) 386 mg/kg/day; (mouse, strain B6C3F1, females, in feed, site: liver, lesion: hepatocellular adenoma + hepatocellular carcinoma + neoplastic nodule, dosed 105 weeks, study length 105 weeks) 1020 mg/kg/day; (mouse, strain B6C3F1, females, in feed, site: liver, lesion: hepatocellular carcinoma, dosed 105 weeks, study length 105 weeks) 1420 mg/kg/day; (mouse, strain B6C3F1, females, in feed, site: pituitary gland, lesion: adenoma, dosed 105 weeks, study length 105 weeks) 1390 mg/kg/day (inactive); (rat, strain Fischer 344, females, in feed, site: any site (literature study), lesion: several types, types named in the paper, dosed 105 weeks, study length 104 weeks) 12000 mg/kg/day (inactive). The TD50 is 676000 mg/kg/day (rat, strain Fischer 344, females, in feed, site: liver, lesion: hepatocellular adenoma + hepatocellular carcinoma + neoplastic nodule, dosed 105 weeks, study length 104 weeks); 180 mg/kg/day (rat, strain Fischer 344, males, in feed, site: any site (literature study), lesion: several types, types named in the paper, dosed 104 weeks, study length 104 weeks); 951 mg/kg/day (rat, strain Fischer 344, males, in feed, site: lung, lesion: alveolar/bronchiolar adenoma, dosed 104 weeks, study length 104 weeks); 87.4 mg/kg/day (inactive) (rat, strain Fischer 344, males, in feed, site: thyroid gland, lesion: c-cell adenoma + c-cell carcinoma, dosed 104 weeks, study length 104 weeks); 405 mg/kg/day (rat, strain Fischer 344, males, in feed, site: thyroid gland, lesion: c-cell carcinoma, dosed 104 weeks, study length 104 weeks). The carcinogen call by setting is: (mouse, strain B6C3F1, males, in feed, site: any site (literature study), lesion: several types, types named in the paper, dosed 105 weeks, study length 105 weeks) “negative (inactive)”; (mouse, strain Charles River CD1, both sexes, in drinking water, site: any site (literature study), lesion: benign tumor, dosed 104 weeks, study length 104 weeks) “negative (inactive)”; (mouse, strain Charles River CD1, both sexes, in drinking water, site: any site (literature study), lesion: malignant tumor, dosed 104 weeks, study length 104 weeks) “negative (inactive)”; (mouse, strain Charles River CD1, both sexes, in drinking water, site: any site (literature study), lesion: several types, types named in the paper, dosed 104 weeks, study length 104 weeks) “negative (inactive)”; (mouse, strain Charles River CD1, both sexes, in drinking water, site: lung, lesion: adenoma, dosed 104 weeks, study length 104 weeks) “negative (inactive)”; (mouse, strain Charles River CD1, both sexes, in drinking water, site: lung, lesion: several types, types named in the paper, dosed 104 weeks, study length 104 weeks) “negative (inactive)”. The carcinogen call was “negative (inactive)” (rat, strain Long-Evans BLU:(LE), both sexes, in drinking water, site: any site (literature study), lesion: malignant tumor, dosed 156 weeks, study length 156 weeks); “negative (inactive)” (rat, strain Long-Evans BLU:(LE), both sexes, in drinking water, site: any site (literature study), lesion: one or several types, types not named, dosed 156 weeks, study length 156 weeks); “negative (inactive)” (rat, strain Long-Evans BLU:(LE), both sexes, in drinking water, site: liver, lesion: one or several types, types not named, dosed 156 weeks, study length 156 weeks).
In the case of `c1ccc(C2CO2)cc1` (stereo not drawn), the TD50 by setting is: (mouse, strain B6C3F1, females, by gavage, site: forestomach, lesion: several types, types named in the paper, dosed 104 weeks, study length 107 weeks) 172 mg/kg/day; (mouse, strain B6C3F1, females, by gavage, site: forestomach, lesion: squamous-cell carcinoma, dosed 104 weeks, study length 107 weeks) 505 mg/kg/day; (mouse, strain B6C3F1, females, by gavage, site: forestomach, lesion: squamous-cell papilloma, dosed 104 weeks, study length 107 weeks) 460 mg/kg/day; (mouse, strain B6C3F1, females, by gavage, site: liver, lesion: several types, types named in the paper, dosed 104 weeks, study length 107 weeks) 5960 mg/kg/day; (mouse, strain B6C3F1, males, by gavage, site: forestomach, lesion: several types, types named in the paper, dosed 104 weeks, study length 107 weeks) 90 mg/kg/day; (mouse, strain B6C3F1, males, by gavage, site: forestomach, lesion: squamous-cell carcinoma, dosed 104 weeks, study length 107 weeks) 475 mg/kg/day. Besides, the TD50 is, setting by setting: (mouse, strain B6C3F1, males, by gavage, site: forestomach, lesion: squamous-cell papilloma, dosed 104 weeks, study length 107 weeks) 215 mg/kg/day; (mouse, strain B6C3F1, males, by gavage, site: liver, lesion: several types, types named in the paper, dosed 104 weeks, study length 107 weeks) 223 mg/kg/day; (rat, strain Fischer 344, females, by gavage, site: forestomach, lesion: several types, types named in the paper, dosed 104 weeks, study length 107 weeks) 42.9 mg/kg/day; (rat, strain Fischer 344, females, by gavage, site: forestomach, lesion: squamous-cell carcinoma, dosed 104 weeks, study length 107 weeks) 114 mg/kg/day; (rat, strain Fischer 344, females, by gavage, site: forestomach, lesion: squamous-cell papilloma, dosed 104 weeks, study length 107 weeks) 217 mg/kg/day; (rat, strain Fischer 344, males, by gavage, site: forestomach, lesion: several types, types named in the paper, dosed 104 weeks, study length 107 weeks) 30.7 mg/kg/day. The TD50 reads like this: (rat, strain Fischer 344, males, by gavage, site: forestomach, lesion: squamous-cell carcinoma, dosed 104 weeks, study length 107 weeks) 81.6 mg/kg/day; (rat, strain Fischer 344, males, by gavage, site: forestomach, lesion: squamous-cell papilloma, dosed 104 weeks, study length 107 weeks) 146 mg/kg/day; (rat, strain Fischer 344, males, by gavage, site: liver, lesion: neoplastic nodule, dosed 104 weeks, study length 107 weeks) 10300 mg/kg/day; (rat, strain Sprague-Dawley, females, by gavage, site: any site (literature study), lesion: malignant tumor, dosed 52 weeks, study length 156 weeks) 166 mg/kg/day; (rat, strain Sprague-Dawley, females, by gavage, site: any site (literature study), lesion: several types, types named in the paper, dosed 52 weeks, study length 156 weeks) 164 mg/kg/day; (rat, strain Sprague-Dawley, females, by gavage, site: forestomach, lesion: benign tumor, dosed 52 weeks, study length 156 weeks) 503 mg/kg/day. The TD50 reads like this: (rat, strain Sprague-Dawley, females, by gavage, site: forestomach, lesion: several types, types named in the paper, dosed 52 weeks, study length 156 weeks) 96.5 mg/kg/day; (rat, strain Sprague-Dawley, females, by gavage, site: forestomach, lesion: squamous-cell carcinoma, in situ, dosed 52 weeks, study length 156 weeks) 129 mg/kg/day; (rat, strain Sprague-Dawley, females, by gavage, site: forestomach, lesion: squamous-cell carcinoma, invasive, dosed 52 weeks, study length 156 weeks) 301 mg/kg/day; (rat, strain Sprague-Dawley, females, by gavage, site: forestomach, lesion: squamous-cell carcinoma, dosed 52 weeks, study length 156 weeks) 102 mg/kg/day; (rat, strain Sprague-Dawley, males, by gavage, site: any site (literature study), lesion: malignant tumor, dosed 52 weeks, study length 156 weeks) 189 mg/kg/day; (rat, strain Sprague-Dawley, males, by gavage, site: any site (literature study), lesion: several types, types named in the paper, dosed 52 weeks, study length 156 weeks) 191 mg/kg/day. Further, the TD50 was 354 mg/kg/day (rat, strain Sprague-Dawley, males, by gavage, site: forestomach, lesion: benign tumor, dosed 52 weeks, study length 156 weeks); 99.6 mg/kg/day (rat, strain Sprague-Dawley, males, by gavage, site: forestomach, lesion: several types, types named in the paper, dosed 52 weeks, study length 156 weeks); 140 mg/kg/day (rat, strain Sprague-Dawley, males, by gavage, site: forestomach, lesion: squamous-cell carcinoma, in situ, dosed 52 weeks, study length 156 weeks); 267 mg/kg/day (rat, strain Sprague-Dawley, males, by gavage, site: forestomach, lesion: squamous-cell carcinoma, invasive, dosed 52 weeks, study length 156 weeks); 63 mg/kg/day (rat, strain Sprague-Dawley, males, by gavage, site: forestomach, lesion: squamous-cell carcinoma, dosed 52 weeks, study length 156 weeks).
Consider `Nc1cc([N+](=O)[O-])ccc1O`, for which the carcinogen call was “negative (inactive)” (mouse, strain B6C3F1, females, by gavage, site: any site (literature study), lesion: several types, types named in the paper, dosed 103 weeks, study length 105 weeks) and “negative (inactive)” (rat, strain Fischer 344, females, by gavage, site: any site (literature study), lesion: several types, types named in the paper, dosed 103 weeks, study length 105 weeks). Besides, the TD50 by setting is: (mouse, strain B6C3F1, females, by gavage, site: liver, lesion: hepatocellular adenoma + hepatocellular carcinoma + neoplastic nodule, dosed 103 weeks, study length 105 weeks) 2160 mg/kg/day; (mouse, strain B6C3F1, females, by gavage, site: lung, lesion: alveolar/bronchiolar adenoma + alveolar/bronchiolar carcinoma, dosed 103 weeks, study length 105 weeks) 2180 mg/kg/day; (mouse, strain B6C3F1, males, by gavage, site: abdominal cavity + liver + mesenteric lymph node + pancreas + spleen + subcutaneous tissue, lesion: hemangioma + hemangiosarcoma, dosed 103 weeks, study length 105 weeks) 798 mg/kg/day (inactive); (mouse, strain B6C3F1, males, by gavage, site: any site (literature study), lesion: several types, types named in the paper, dosed 103 weeks, study length 105 weeks) 582 mg/kg/day; (rat, strain Fischer 344, males, by gavage, site: any site (literature study), lesion: several types, types named in the paper, dosed 103 weeks, study length 105 weeks) 84.1 mg/kg/day; (rat, strain Fischer 344, males, by gavage, site: kidney cortex, lesion: adenoma, NOS, dosed 103 weeks, study length 105 weeks) 839 mg/kg/day. In addition, the TD50 is, setting by setting: (rat, strain Fischer 344, males, by gavage, site: liver, lesion: hepatocellular adenoma + hepatocellular carcinoma + neoplastic nodule, dosed 103 weeks, study length 105 weeks) 1300 mg/kg/day; (rat, strain Fischer 344, males, by gavage, site: liver, lesion: hepatocellular carcinoma + neoplastic nodule, dosed 103 weeks, study length 105 weeks) 1300 mg/kg/day; (rat, strain Fischer 344, males, by gavage, site: subcutaneous tissue, lesion: fibroma, dosed 103 weeks, study length 105 weeks) 584 mg/kg/day; (rat, strain Fischer 344, males, by gavage, site: subcutaneous tissue, lesion: fibrosarcoma + fibroma + neurofibrosarcoma + sarcoma, NOS, dosed 103 weeks, study length 105 weeks) 458 mg/kg/day; (rat, strain Fischer 344, males, by gavage, site: testis, lesion: interstitial-cell tumor, dosed 103 weeks, study length 105 weeks) 68.2 mg/kg/day.
In the case of `N#[N+]c1cc(CCN)ccc1[O-]`, the TD50 (rat, strain F344/DuCrj, males, in drinking water, site: oral cavity, lesion: squamous-cell carcinoma, dosed 116 weeks, study length 116 weeks) was 37.6 mg/kg/day.
